Patent US9062078B2, “Substituted 7-azabicyles and their use as orexin receptor modulators” (priority 2013, dated 2015)
Read-outs that look alike come from different tables or passages of the source.

What was measured:
[1] = biological target: human orexin 1 receptor (Homo sapiens (Human), UniProt O43613); assay: Human orexin 1 receptor radioligand binding (competitive, [3H]-SB674042, CHO cell preparations)
[2] = biological target: human orexin 2 receptor (Homo sapiens (Human), UniProt O43614); assay: Human orexin 2 receptor radioligand binding (competitive, [3H]-EMPA, HEK293 cell preparations)
human orexin 2 receptor, sequence (O43614 whole entry): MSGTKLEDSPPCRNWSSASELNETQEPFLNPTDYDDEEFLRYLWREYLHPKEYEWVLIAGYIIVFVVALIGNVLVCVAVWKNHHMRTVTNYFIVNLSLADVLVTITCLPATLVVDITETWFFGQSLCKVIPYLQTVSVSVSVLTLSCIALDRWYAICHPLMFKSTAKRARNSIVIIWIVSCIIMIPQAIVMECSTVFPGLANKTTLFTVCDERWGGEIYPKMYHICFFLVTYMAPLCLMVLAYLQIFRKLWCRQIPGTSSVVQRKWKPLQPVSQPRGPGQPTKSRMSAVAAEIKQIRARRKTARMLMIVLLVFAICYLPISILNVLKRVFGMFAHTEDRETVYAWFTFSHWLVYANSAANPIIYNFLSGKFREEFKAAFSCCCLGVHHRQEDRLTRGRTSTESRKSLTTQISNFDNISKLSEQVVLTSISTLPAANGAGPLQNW

[3] = biological target: rat orexin 1 receptor (Rattus norvegicus, UniProt P56718); assay: Rat orexin 1 receptor radioligand binding (competitive, [3H]-SB674042, HEK293 cell preparations)
[4] = human orexin 1 receptor, [3H]-SB674042 competition binding, read-out: hOX1 Ki (nm)
[5] = human orexin 2 receptor, [3H]-EMPA competition binding, read-out: hOX2 Ki (nm)
[6] = rat orexin 1 receptor, [3H]-SB674042 competition binding, read-out: rOX1 Ki (nm)

human orexin 1 receptor, sequence (O43613 whole entry): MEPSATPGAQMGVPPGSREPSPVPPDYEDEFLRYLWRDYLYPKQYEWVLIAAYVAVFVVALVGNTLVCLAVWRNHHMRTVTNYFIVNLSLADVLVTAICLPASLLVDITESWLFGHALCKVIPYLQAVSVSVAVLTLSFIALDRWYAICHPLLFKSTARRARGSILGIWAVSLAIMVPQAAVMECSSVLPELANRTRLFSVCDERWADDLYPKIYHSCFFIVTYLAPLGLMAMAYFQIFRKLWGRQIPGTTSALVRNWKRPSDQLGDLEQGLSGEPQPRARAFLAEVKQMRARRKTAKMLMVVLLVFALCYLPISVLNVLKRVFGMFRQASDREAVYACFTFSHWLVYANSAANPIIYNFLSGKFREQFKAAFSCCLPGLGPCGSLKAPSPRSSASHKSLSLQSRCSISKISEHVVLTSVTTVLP

Row | SMILES | Ki [1, 4] [nM] | Ki [2, 5] [nM] | Ki [3, 6] [nM] | Ki ([1]; read-out: hOX1 Ki (nm)) [nM] | Ki ([3]; read-out: rOX1 Ki (nm)) [nM] | Ki ([1]; hOX1 Ki (nm)) [nM] | Ki ([2]; hOX2 Ki (nm)) [nM] | Ki ([3]; rOX1 Ki (nm)) [nM]
1 | Cc1ccc(-c2nc(C)no2)c(C(=O)N2C3CCC2C(COc2ccc(F)cn2)C3)n1 (racemic) [Example 66, (±)-(2-(((5-fluoropyridin-2-yl)oxy)methyl)-7-azabicyclo[2.2.1]heptan-7-yl)(6-methyl-3-(3-methyl-1,2,4-oxadiazol-5-yl)pyridin-2-yl)methanone] | 293 | 620 | 197 |  |  |  |  | 
2 | Cc1ccc(-c2ncccn2)c(C(=O)N2C3CCC2C(COc2ccc(F)cn2)C3)n1 (racemic) [Example 64, (±)-(2-(((5-fluoropyridin-2-yl)oxy)methyl)-7-azabicyclo[2.2.1]heptan-7-yl)(6-methyl-3-(pyrimidin-2-yl)pyridin-2-yl)methanone] | 24 | 81 | 18 |  |  |  |  | 
3 | COc1cccc(-n2nccn2)c1C(=O)N1[C@@H]2CC[C@H]1[C@H](Nc1cnc(C(F)(F)F)cn1)C2 [Example 242, (2-methoxy-6-(2H-1,2,3-triazol-2-yl)phenyl)((1S,2R,4R)-2-((5-(trifluoromethyl)pyrazin-2-yl)amino)-7-azabicyclo[2.2.1]heptan-7-yl)methanone] |  | 239 |  | 41 | 31 |  |  | 
4 | O=C(c1cccc(F)c1-c1cccnn1)N1[C@@H]2CC[C@H]1[C@H](Nc1cnc(C(F)(F)F)cn1)C2 [Example 262, (3-fluoro-2-(pyridazin-3-yl)phenyl)((1S,2R,4R)-2-((5-(trifluoromethyl)pyrazin-2-yl)amino)-7-azabicyclo[2.2.1]heptan-7-yl)methanone] | 175 | 4200 | 106 |  |  |  |  | 
5 | O=C(c1cc(F)ccc1-c1ccn[nH]1)N1C2CCC1C(COc1ccc(F)cn1)C2 (racemic) [Example 109, (±)-(5-fluoro-2-(1H-pyrazol-5-yl)phenyl)(2-(((5-fluoropyridin-2-yl)oxy)methyl)-7-azabicyclo[2.2.1]heptan-7-yl)methanone] |  |  |  |  |  | 20 | 99 | 29
6 | Cc1cnn(-c2ccc(C)nc2C(=O)N2C3CCC2C(COc2ccccn2)C3)c1 (racemic) [Example 96, (±)-(6-methyl-3-(4-methyl-1H-pyrazol-1-yl)pyridin-2-yl)(2-((pyridin-2-yloxy)methyl)-7-azabicyclo[2.2.1]heptan-7-yl)methanone] | 76 | 950 | 70 |  |  |  |  | 
7 | Cc1ccc(-c2ncccn2)c(C(=O)N2C3CCC2C(Nc2ccc(C(F)(F)F)cn2)C3)n1 (racemic) [Example 195, (±)-(6-methyl-3-(pyrimidin-2-yl)pyridin-2-yl)(2-(5-(trifluoromethyl)pyridin-2-yl)amino)-7-azabicyclo[2.2.1]heptan-7-yl)methanone] |  |  |  |  |  | 37 | 325 | 57
8 | Cc1cccc(C(=O)N2C3CCC2C(COc2ccc(F)cn2)C3)c1-n1nccn1 (racemic) [Example 125, (±)-(2-(((5-fluoropyridin-2-yl)oxy)methyl)-7-azabicyclo[2.2.1]heptan-7-yl)(3-methyl-2-(2H-1,2,3-triazol-2-yl)phenyl)methanone] |  | 132 |  |  |  | 29 |  | 47
9 | COc1ccc(C(=O)N2[C@@H]3CC[C@H]2[C@H](Nc2cnc(C(F)(F)F)cn2)C3)c(-n2nccn2)c1 [Example 241, (4-methoxy-2-(2H-1,2,3-triazol-2-yl)phenyl)((1S,2R,4R)-2-((5-(trifluoromethyl)pyrazin-2-yl)amino)-7-azabicyclo[2.2.1]heptan-7-yl)methanone] | 159 | 5060 | 134 |  |  |  |  | 
10 | O=C(c1c(F)cccc1-n1nccn1)N1C2CCC1C(COc1ccc(F)cn1)C2 (racemic) [Example 115, (±)-(2-fluoro-6-(2H-1,2,3-triazol-2-yl)phenyl)(2-(((5-fluoropyridin-2-yl)oxy)methyl)-7-azabicyclo[2.2.1]heptan-7-yl)methanone] |  |  |  |  |  | 78 | 108 | 57
11 | COc1cccc(-n2nccn2)c1C(=O)N1C2CCC1C(COc1ccc(F)cn1)C2 (racemic) [Example 108, (±)-(2-(((5-fluoropyridin-2-yl)oxy)methyl)-7-azabicyclo[2.2.1]heptan-7-yl)(2-methoxy-6-(2H-1,2,3-triazol-2-yl)phenyl)methanone] | 12 | 12 | 10 |  |  |  |  | 
12 | O=C(c1c(F)cccc1-n1nccn1)N1C2CCC1C(COc1cnc3ccccc3n1)C2 (racemic) [Example 35, (±)-(2-fluoro-6-(2H-1,2,3-triazol-2-yl)phenyl)(2-((quinoxalin-2-yloxy)methyl)-7-azabicyclo[2.2.1]heptan-7-yl)methanone] | 58 | 693 | 69 |  |  |  |  | 
13 | Cc1ccc(C(=O)N2[C@@H]3CC[C@H]2[C@H](Nc2cnc(C(F)(F)F)cn2)C3)c(-n2ccnn2)n1 [Example 248, (6-methyl-2-(1H-1,2,3-triazol-1-yl)pyridin-3-yl)((1S,2R,4R)-2-((5-(trifluoromethyl)pyrazin-2-yl)amino)-7-azabicyclo[2.2.1]heptan-7-yl)methanone] | 119 | > 10000 | 153 |  |  |  |  | 
14 | COc1ccc(-n2nccn2)c(C(=O)N2[C@@H]3CC[C@H]2[C@H](Nc2cnc(C(F)(F)F)cn2)C3)c1 [Example 255, (5-methoxy-2-(2H-1,2,3-triazol-2-yl)phenyl)((1S,2R,4R)-2-((5-(trifluoromethyl)pyrazin-2-yl)amino)-7-azabicyclo[2.2.1]heptan-7-yl)methanone] |  | 265 |  | 29 | 32 |  |  | 
15 | Cc1ccc(-c2ncccn2)c(C(=O)N2C3CCC2C(COc2ccccn2)C3)n1 (racemic) [Example 2, (±)-(6-methyl-3-(pyrimidin-2-yl)pyridin-2-yl)(2-((pyridin-2-yloxy)methyl)-7-azabicyclo[2.2.1]heptan-7-yl)methanone] |  |  |  |  |  | 23 | 500 | 31
16 | Cc1ccc(-c2ncccn2)c(C(=O)N2C3CCC2C(Nc2cnc4ccccc4n2)C3)n1 (racemic) [Example 208, (±)-(6-methyl-3-(pyrimidin-2-yl)pyridin-2-yl)(2-(quinoxalin-2-ylamino)-7-azabicyclo[2.2.1]heptan-7-yl)methanone] |  | 90 |  |  |  | 30 |  | 26
17 | O=C(c1c(F)cccc1-n1nccn1)N1[C@@H]2CC[C@H]1[C@H](Nc1cnc(C(F)(F)F)cn1)C2 [Example 258, (2-fluoro-6-(2H-1,2,3-triazol-2-yl)phenyl)((1S,2R,4R)-2-((5-(trifluoromethyl)pyrazin-2-yl)amino)-7-azabicyclo[2.2.1]heptan-7-yl)methanone] |  | 690 |  | 48 | 42 |  |  | 
18 | O=C(c1cc(Cl)ccc1-n1nccn1)N1C2CCC1C(COc1ccc(F)cn1)C2 (racemic) [Example 120, (±)-(5-chloro-2-(2H-1,2,3-triazol-2-yl)phenyl)(2-(((5-fluoropyridin-2-yl)oxy)methyl)-7-azabicyclo[2.2.1]heptan-7-yl)methanone] | 14 | 124 | 15 |  |  |  |  | 
19 | Cc1ccc(-c2ncco2)c(C(=O)N2C3CCC2C(COc2ccc(F)cn2)C3)n1 (racemic) [Example 63, (±)-(2-(((5-fluoropyridin-2-yl)oxy)methyl)-7-azabicyclo[2.2.1]heptan-7-yl)(6-methyl-3-(oxazol-2-yl)pyridin-2-yl)methanone] | 25 | 339 | 25 |  |  |  |  | 
20 | Cc1nc(C(=O)N2[C@@H]3CC[C@H]2[C@H](Nc2cnc(C(F)(F)F)cn2)C3)c(-c2ccc(F)cc2)s1 [Example 244, (5-(4-fluorophenyl)-2-methylthiazol-4-yl)((1S,2R,4R)-2-((5-(trifluoromethyl)pyrazin-2-yl)amino)-7-azabicyclo[2.2.1]heptan-7-yl)methanone] |  | 235 |  | 46 | 74 |  |  | 
21 | Cc1cnc(N[C@@H]2C[C@H]3CC[C@@H]2N3C(=O)c2cccc(F)c2-c2ncccn2)cn1 [Example 278, (3-fluoro-2-(pyrimidin-2-yl)phenyl)((1S,2R,4R)-2-((5-methylpyrazin-2-yl)amino)-7-azabicyclo[2.2.1]heptan-7-yl)methanone] |  | 934 |  | 77 | 87 |  |  | 
22 | Cc1ccc(-n2ccc(C)n2)c(C(=O)N2C3CCC2C(COc2ccc(F)cn2)C3)n1 (racemic) [Example 67, (±)-(2-(((5-fluoropyridin-2-yl)oxy)methyl)-7-azabicyclo[2.2.1]heptan-7-yl)(6-methyl-3-(3-methyl-1H-pyrazol-1-yl)pyridin-2-yl)methanone] | 69 | 258 | 48 |  |  |  |  | 
23 | Cc1ccc(-n2nccn2)c(C(=O)N2C3CCC2C(Nc2cnc4ccccc4n2)C3)n1 (racemic) [Example 205, (±)-(6-methyl-3-(2H-1,2,3-triazol-2-yl)pyridin-2-yl)(2-(quinoxalin-2-ylamino)-7-azabicyclo[2.2.1]heptan-7-yl)methanone] |  |  |  |  |  | 50 | 168 | 79
24 | O=C(c1ccccc1-n1nccn1)N1C2CCC1C(Nc1nc3cc(Cl)ccc3o1)C2 (racemic) [Example 216, (±)-(2-(2H-1,2,3-triazol-2-yl)phenyl)(2-((5-chlorobenzo[d]oxazol-2-yl)amino)-7-azabicyclo[2.2.1]heptan-7-yl)methanone] |  | 475 |  |  |  | 71 |  | 99
25 | CCOc1ccc(C)nc1C(=O)N1C2CCC1C(Nc1cnc3ccccc3n1)C2 (single isomer, unassigned) [Example 207, (±)-(3-ethoxy-6-methylpyridin-2-yl)(2-(quinoxalin-2-ylamino)-7-azabicyclo[2.2.1]heptan-7-yl)methanone] | 95 | 64 | 120 |  |  |  |  | 
